These results are taken from US11524006B2, “Crenolanib for treating TRK kinase associated proliferative disorders” (Arog Pharmaceuticals, Inc., priority 2020, dated 2022).

Assay [1] concerns TRK fusion positive cancers. As to conditions: cited from earlier work.
For a further assay, the target named is T1, TRKA-L657M (Homo sapiens, UniProt P04629, L657M).
T1 construct: purchased Reaction Biology (HotSpot Kinase assay panel)
The assay can be described thus: Reaction Biology HotSpot Kinase assay, direct enzyme phosphorylation. The assay is classed as biochemical. The following applies: Other Mutant TRKA-L657M. Here is the method: (§1) Direct enzyme phosphorylation assay. The Reaction Biology HotSpot Kinase assay was used to screen the present invention against a panel of normal TRKA, TRKB, and TRKC and mutated TRK kinases. For assays of all kinases, the TRK enzyme was prepared in base reaction buffer (20 mM Hepes (pH 7.5), 10 mM MgCl2, 1 mM EGTA, 0.02% Brij35, 0.02 mg/ml BSA, 0.1 mM Na3VO4, 2 mM DTT, 1% DMSO). The reaction was initiated by the addition of 33P-ATP (10 μCi/μL) into the mixture. The reaction mixture was incubated for 120 minutes at room temperature. Radioactivity was detected by filter-binding method, and kinase activity expressed as the percent remaining kinase activity in test samples compared to vehicle reactions. IC50 values and curve fitting were obtained using Prism (GraphPad Software).
(§2) The activity of the besylate salt of the present invention was determined using a direct enzymatic Reaction Biology HotSpot Kinase assay. All IC50 values are presented in nanomolar concentration. In the direct enzymatic measurement assay, the IC50 of the besylate salt of the current invention against the various TRK kinases is shown in Table 1.

For another assay, the target named is T2, TRKC-L686M (Homo sapiens, UniProt Q16288, L686M).
T2 construct: purchased Reaction Biology (HotSpot Kinase assay panel)
T2 sequence (Q16288 32-839 L686M): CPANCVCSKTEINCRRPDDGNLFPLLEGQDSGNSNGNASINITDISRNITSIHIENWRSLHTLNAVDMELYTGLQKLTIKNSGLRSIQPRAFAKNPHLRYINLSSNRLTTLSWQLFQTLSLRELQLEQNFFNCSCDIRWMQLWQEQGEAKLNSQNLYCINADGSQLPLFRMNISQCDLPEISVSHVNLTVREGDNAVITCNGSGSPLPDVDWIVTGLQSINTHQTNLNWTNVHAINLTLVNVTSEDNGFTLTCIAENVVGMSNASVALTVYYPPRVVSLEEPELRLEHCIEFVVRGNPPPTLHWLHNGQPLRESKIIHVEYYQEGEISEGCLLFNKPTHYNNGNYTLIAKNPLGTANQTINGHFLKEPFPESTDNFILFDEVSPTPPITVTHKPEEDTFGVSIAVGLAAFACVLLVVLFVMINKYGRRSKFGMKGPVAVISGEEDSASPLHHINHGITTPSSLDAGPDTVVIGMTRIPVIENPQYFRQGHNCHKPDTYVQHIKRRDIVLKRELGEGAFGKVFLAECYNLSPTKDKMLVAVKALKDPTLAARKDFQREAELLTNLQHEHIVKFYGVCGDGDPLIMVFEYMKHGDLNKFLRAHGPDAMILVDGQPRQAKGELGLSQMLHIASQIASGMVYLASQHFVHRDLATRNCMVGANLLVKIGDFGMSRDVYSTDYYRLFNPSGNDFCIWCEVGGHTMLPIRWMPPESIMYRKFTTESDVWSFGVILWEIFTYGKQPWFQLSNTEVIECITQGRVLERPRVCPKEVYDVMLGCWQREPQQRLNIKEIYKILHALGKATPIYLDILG
The assay is described as above. The assay is classed as biochemical. As to conditions: Other Mutant TRKC-L686M. Here is the method: as §1, §2

The next assay has as its target T3, TRKA-A608D (Homo sapiens, UniProt P04629, A608D).
T3 construct: purchased Reaction Biology (HotSpot Kinase assay panel)
The description is as above. The class given is biochemical. As to conditions: Other Mutant TRKA-A608D. The method, then: as §1, §2

In the next assay the target is T4, TRKC-G696A (Homo sapiens, UniProt Q16288, G696A).
T4 construct: purchased Reaction Biology (HotSpot Kinase assay panel)
T4 sequence (Q16288 32-839 G696A): as the sequence (Q16288 32-839 L686M) above, with M655L, G665A counted along it
The description is as above. As to conditions: xDFG Mutant TRKC-G696A. The class given is biochemical. Here is the method: as §1, §2

A further assay addresses T5, TRKA-G667C (Homo sapiens, UniProt P04629, G667C).
T5 construct: purchased Reaction Biology (HotSpot Kinase assay panel)
Described as above. The class given is biochemical. As to conditions: xDFG Mutant TRKA-G667C. Here is the method:
as §1, §2

The target of a further assay is T6, TRKA-TPR (Homo sapiens, UniProt P04629).
T6 construct: fused on or other part: N-terminal coiled-coil part of TPR (translocated promoter region protein); P12270 (Nucleoprotein TPR)
T6 sequence (P04629 510-796 limits assumed): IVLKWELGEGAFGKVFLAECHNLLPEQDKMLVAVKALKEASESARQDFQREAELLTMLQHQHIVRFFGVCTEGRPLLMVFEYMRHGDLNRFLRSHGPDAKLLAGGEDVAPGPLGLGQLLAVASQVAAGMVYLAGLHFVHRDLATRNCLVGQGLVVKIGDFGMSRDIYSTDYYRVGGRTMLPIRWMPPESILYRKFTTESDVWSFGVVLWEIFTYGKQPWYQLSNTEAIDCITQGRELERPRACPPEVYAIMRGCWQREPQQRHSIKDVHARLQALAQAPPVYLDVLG
The description is as above. The following applies: Fusion TRKA-TPR. The class given is biochemical. The method, then:
as §1, §2

A further assay concerns the target T7, TRKA-TFG (Homo sapiens, UniProt P04629).
T7 construct: partner gene encoding one or more dimerization domains with the tyrosine kinase domains of one of the TRK genes; TFG (fusion partner); purchased Reaction Biology (HotSpot Kinase assay panel); the other entry of the earlier key: TFG (Q92734, Protein TFG)
Described as above. As to conditions: Fusion TRKA-TFG. The assay is classed as biochemical. The method, then: as §1, §2

For a further assay, the target named is T8, TRKA-TPM3 (Homo sapiens, UniProt P04629).
T8 construct: fused on or other part: N-terminal part of tropomyosin 3 (coiled-coil dimerisation part); P06753 (Tropomyosin alpha-3 chain)
T8 sequence (P04629 510-796 limits assumed): as above
The assay is described as above. The class given is biochemical. The following applies: Fusion TRKA-TPM3. Here is the method:
as §1, §2

The next assay has as its target T9, TRKA-G667S (Homo sapiens, UniProt P04629, G667S).
T9 construct: purchased Reaction Biology (HotSpot Kinase assay panel)
The description is as above. The class given is biochemical. The following applies: xDFG Mutant TRKA-G667S. Here is the method:
as §1, §2

T1 sequence (P04629 33-796 L657M): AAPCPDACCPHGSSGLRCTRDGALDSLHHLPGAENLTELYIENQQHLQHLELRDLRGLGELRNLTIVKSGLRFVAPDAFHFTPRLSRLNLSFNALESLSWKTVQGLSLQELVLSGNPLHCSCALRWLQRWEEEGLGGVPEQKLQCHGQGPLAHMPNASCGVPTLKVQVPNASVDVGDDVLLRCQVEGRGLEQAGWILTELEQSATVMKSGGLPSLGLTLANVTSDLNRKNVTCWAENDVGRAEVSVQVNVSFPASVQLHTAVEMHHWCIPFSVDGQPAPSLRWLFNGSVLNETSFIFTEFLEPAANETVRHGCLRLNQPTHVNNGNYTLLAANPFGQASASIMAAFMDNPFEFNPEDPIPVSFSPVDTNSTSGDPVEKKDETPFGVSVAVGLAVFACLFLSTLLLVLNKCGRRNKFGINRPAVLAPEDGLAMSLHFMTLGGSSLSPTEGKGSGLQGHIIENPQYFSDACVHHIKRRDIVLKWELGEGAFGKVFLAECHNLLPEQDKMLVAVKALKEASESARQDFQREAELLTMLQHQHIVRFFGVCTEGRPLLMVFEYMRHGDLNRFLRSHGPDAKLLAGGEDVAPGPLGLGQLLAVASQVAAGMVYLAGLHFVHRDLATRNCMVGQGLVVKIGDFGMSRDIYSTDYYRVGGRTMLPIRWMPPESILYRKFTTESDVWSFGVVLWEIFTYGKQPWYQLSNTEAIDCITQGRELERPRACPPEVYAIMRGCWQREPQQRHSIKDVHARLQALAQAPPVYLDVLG
T5 sequence (P04629 33-796 G667C): as the sequence (P04629 33-796 L657M) above, with M625L, G635C counted along it
T3 sequence (P04629 33-796 A608D): as the sequence (P04629 33-796 L657M) above, with A576D, M625L counted along it
T9 sequence (P04629 33-796 G667S): as the sequence (P04629 33-796 L657M) above, with M625L, G635S counted along it
T7 sequence (P04629 with tags, fused parts or gaps): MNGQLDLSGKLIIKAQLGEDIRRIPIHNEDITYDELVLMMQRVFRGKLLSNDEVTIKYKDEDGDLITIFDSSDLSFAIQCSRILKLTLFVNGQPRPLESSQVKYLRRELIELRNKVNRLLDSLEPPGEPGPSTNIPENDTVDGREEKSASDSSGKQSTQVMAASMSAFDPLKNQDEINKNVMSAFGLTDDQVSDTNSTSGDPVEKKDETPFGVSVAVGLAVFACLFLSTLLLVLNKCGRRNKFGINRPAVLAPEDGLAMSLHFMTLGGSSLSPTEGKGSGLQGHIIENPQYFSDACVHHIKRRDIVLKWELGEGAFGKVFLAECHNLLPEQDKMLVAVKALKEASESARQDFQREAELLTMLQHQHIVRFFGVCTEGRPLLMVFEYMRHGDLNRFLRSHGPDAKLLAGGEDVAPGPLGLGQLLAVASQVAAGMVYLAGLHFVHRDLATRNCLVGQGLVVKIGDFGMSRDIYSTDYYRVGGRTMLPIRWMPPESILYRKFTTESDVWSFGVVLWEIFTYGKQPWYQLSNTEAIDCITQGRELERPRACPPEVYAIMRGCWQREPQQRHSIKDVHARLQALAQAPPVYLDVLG

As for `O=C(Nc1cnn2ccc(N3CCC[C@@H]3c3cc(F)ccc3F)nc12)N1CC[C@H](O)C1` [Larotrectinib], the “clinical response in assessed patients” value in assay [1] (assessed patients) is 75%. Besides, the “patients progressed within 1 year” value in assay [1] (within 1 year) was 45%.
As for `CC1(COc2ccc3c(c2)ncn3-c2ccc3cccc(N4CCC(N)CC4)c3n2)COC1` [crenolanib besylate, Crenolanib Besylate], the IC50 was determined as 79.7 nM against TRKA-L657M; 184 nM against TRKC-L686M; 38.7 nM on TRKA-A608D; 5.69 nM against TRKC-G696A; 5 nM at TRKA-G667C; 3.98 nM on TRKA-TPR. For the same molecule, the IC50 amounted to 3.95 nM against TRKA-TFG, 4.34 nM on TRKA-TPM3 and 4.52 nM against TRKA-G667S.

One may read the IC50 as the concentration that inhibits the measured activity by half. A low value points to greater potency in that assay.
